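Step 1: Grow cells in 96-well plates. Step 2: Expose to compound for 48 hours at 5 concentrations. Step 3: Interpolate endpoints linearly; if unreached, use highest concentration. Abbreviation: GI50, concentration required for 50% inhibition of growth.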 Activity calls are given as the source filed them. No stated cut-off is given here; in the data, active = GI50 up to about 1.1 µM and inactive = higher.
Columns and labels:
Assay in all cases: inhibition of tumour cell growth, NCI panel, 48 h
786-0 = system: 786-0
A498 = system: A498
A549 = system: A549
ACHN = system: ACHN
BT-549 = system: BT-549
CAKI-1 = system: CAKI-1
CCRF-CEM = system: CCRF-CEM
COLO 205 = system: COLO 205
DU-145 = system: DU-145
EKVX = system: EKVX
HCC 2998 = system: HCC 2998
HCT-116 = system: HCT-116
HCT-15 = system: HCT-15
HL-60 = system: HL-60
HOP-92 = system: HOP-92
HT-29 = system: HT-29
Hs-578T = system: Hs-578T
IGROV-1 = system: IGROV-1
K562 = system: K562
KM12 = system: KM12
LOX IMVI = system: LOX IMVI
M14 = system: M14
MCF7 = system: MCF7
MDA-MB-231 = system: MDA-MB-231
MDA-MB-435 = system: MDA-MB-435
MDA-N = system: MDA-N
MOLT-4 = system: MOLT-4
Malme-3M = system: Malme-3M
NCI-H226 = system: NCI-H226
NCI-H23 = system: NCI-H23
NCI-H460 = system: NCI-H460
NCI-H522 = system: NCI-H522
NCI/ADR-RES = system: NCI/ADR-RES
OVCAR-3 = system: OVCAR-3
OVCAR-4 = system: OVCAR-4
OVCAR-5 = system: OVCAR-5
OVCAR-8 = system: OVCAR-8
PC-3 = system: PC-3
RPMI-8226 = system: RPMI-8226
SF-268 = system: SF-268
SF-295 = system: SF-295
SF-539 = system: SF-539
SK-MEL-28 = system: SK-MEL-28
SK-MEL-2 = system: SK-MEL-2
SK-MEL-5 = system: SK-MEL-5
SK-OV-3 = system: SK-OV-3
SN12C = system: SN12C
SNB-19 = system: SNB-19
SNB-75 = system: SNB-75
SW-620 = system: SW-620
T47D = system: T47D
TK-10 = system: TK-10
U-251 = system: U-251
UACC-257 = system: UACC-257
UACC-62 = system: UACC-62
UO-31 = system: UO-31
HOP-62 = system: HOP-62
RXF 393 = system: RXF 393
SR = system: SR

Measured: GI50

C=C1C(NC)CCC23CC24CCC2(C)C(C(C)=O)C(O)CC2(C)C4CCC13 (stereo not drawn)
> 100 µM: HCT-15
inactive: 786-0 80.5 µM | A498 > 100 µM | A549 > 100 µM | ACHN > 100 µM | BT-549 64.3 µM | CAKI-1 > 100 µM | CCRF-CEM 54.8 µM | COLO 205 > 100 µM | DU-145 > 100 µM | EKVX > 100 µM | HCC 2998 > 100 µM | HCT-116 70.3 µM | HL-60 62.7 µM | HOP-92 > 100 µM | HT-29 21.9 µM | Hs-578T > 100 µM | IGROV-1 > 100 µM | K562 71.3 µM | KM12 56.1 µM | LOX IMVI 63.7 µM | M14 > 100 µM | MCF7 70.5 µM | MDA-MB-231 > 100 µM | MDA-MB-435 > 100 µM | MDA-N 63.7 µM | MOLT-4 > 100 µM | Malme-3M > 100 µM | NCI-H226 > 100 µM | NCI-H23 > 100 µM | NCI-H460 > 100 µM | NCI-H522 84.9 µM | NCI/ADR-RES > 100 µM | OVCAR-3 > 100 µM | OVCAR-4 > 100 µM | OVCAR-5 > 100 µM | OVCAR-8 > 100 µM | PC-3 78 µM | RPMI-8226 45 µM | SF-268 > 100 µM | SF-295 28.4 µM | SF-539 59 µM | SK-MEL-28 > 100 µM | SK-MEL-2 > 100 µM | SK-MEL-5 > 100 µM | SK-OV-3 59.7 µM | SN12C 20.4 µM | SNB-19 > 100 µM | SNB-75 49.4 µM | SW-620 > 100 µM | T47D > 100 µM | TK-10 > 100 µM | U-251 > 100 µM | UACC-257 > 100 µM | UACC-62 > 100 µM | UO-31 > 100 µM

CC1=CCC[C@@](C)(O)[C@@H]2C[C@H]3C(CSc4ccccc4)C(=O)O[C@H]3[C@@H](O2)[C@H](C)CCC1 (stereo partly drawn)
19 µM: HCT-15
inactive: 786-0 20.3 µM | A498 18 µM | A549 10.5 µM | ACHN 12.9 µM | BT-549 22.7 µM | CAKI-1 25.1 µM | CCRF-CEM > 100 µM | COLO 205 18.1 µM | DU-145 25.6 µM | EKVX 18.6 µM | HCC 2998 15.8 µM | HCT-116 21.4 µM | HL-60 > 100 µM | HOP-62 16.6 µM | HOP-92 26.9 µM | Hs-578T 18.4 µM | IGROV-1 14.5 µM | K562 9.08 µM | KM12 9.18 µM | LOX IMVI 15.9 µM | M14 13.7 µM | MCF7 13.8 µM | MDA-MB-231 28.1 µM | MDA-MB-435 20.3 µM | MDA-N 24.5 µM | MOLT-4 7.13 µM | Malme-3M 13.7 µM | NCI-H23 16.8 µM | NCI-H460 6.1 µM | NCI-H522 10.7 µM | OVCAR-3 13 µM | OVCAR-4 19.8 µM | OVCAR-5 15.9 µM | OVCAR-8 13.7 µM | PC-3 6.62 µM | RPMI-8226 7.43 µM | RXF 393 13.7 µM | SF-268 34 µM | SF-295 12 µM | SF-539 16.4 µM | SK-MEL-28 21 µM | SK-MEL-2 17.2 µM | SK-MEL-5 14.5 µM | SK-OV-3 21.5 µM | SN12C 38.2 µM | SNB-19 13.2 µM | SNB-75 13.6 µM | SR 6.35 µM | SW-620 27 µM | T47D 22.2 µM | TK-10 17.3 µM | U-251 21.2 µM | UACC-257 18.6 µM | UACC-62 14.8 µM | UO-31 11.8 µM

CN(C)CCCN1c2ccc3ccccc3c2Sc2cccc(Cl)c21
4.33 µM: HCT-15
active: Hs-578T 0.665 µM
inactive: 786-0 2.99 µM | A498 9.82 µM | A549 5.81 µM | ACHN 3.38 µM | BT-549 15.1 µM | CAKI-1 5.33 µM | CCRF-CEM 1.52 µM | COLO 205 1.85 µM | DU-145 4.54 µM | EKVX 2.38 µM | HCC 2998 1.61 µM | HCT-116 3.79 µM | HL-60 1.63 µM | HOP-62 2.85 µM | HOP-92 1.51 µM | HT-29 2.04 µM | IGROV-1 1.54 µM | K562 1.73 µM | KM12 2.08 µM | LOX IMVI 1.97 µM | M14 1.89 µM | MDA-MB-231 2.32 µM | MDA-MB-435 1.98 µM | MDA-N 2.38 µM | MOLT-4 2.14 µM | Malme-3M 5.13 µM | NCI-H226 7.11 µM | NCI-H23 10.6 µM | NCI-H460 1.77 µM | NCI-H522 2.61 µM | NCI/ADR-RES 5.56 µM | OVCAR-3 2.89 µM | OVCAR-4 4.4 µM | OVCAR-5 5.13 µM | OVCAR-8 4.33 µM | PC-3 3.01 µM | RPMI-8226 1.78 µM | RXF 393 3.82 µM | SF-268 5.69 µM | SF-295 3.91 µM | SF-539 4.32 µM | SK-MEL-28 2.18 µM | SK-MEL-2 1.99 µM | SK-MEL-5 3.83 µM | SK-OV-3 11.4 µM | SN12C 6.19 µM | SNB-19 5.87 µM | SNB-75 3.6 µM | SW-620 2.04 µM | T47D 2.46 µM | TK-10 2.52 µM | U-251 2.18 µM | UACC-257 1.69 µM | UACC-62 2 µM | UO-31 2.79 µM

CC(C)CCCC(C)[C@H]1CC[C@H]2[C@@H]3CC[C@H]4C[C@@H](CCC=C(c5cc(Cl)c(O)c(C(=O)OC(C)(C)C)c5)c5cc(Cl)c(O)c(C(=O)OC(C)(C)C)c5)CC[C@]4(C)[C@H]3CC[C@]12C (stereo partly drawn)
> 50 µM: HCT-15
inactive: 786-0 > 50 µM | A498 > 50 µM | A549 > 50 µM | BT-549 > 50 µM | CAKI-1 > 50 µM | CCRF-CEM > 50 µM | COLO 205 > 50 µM | DU-145 > 50 µM | EKVX > 50 µM | HCC 2998 > 50 µM | HCT-116 > 50 µM | HL-60 > 50 µM | HOP-62 > 50 µM | HT-29 > 50 µM | Hs-578T > 50 µM | IGROV-1 > 50 µM | K562 > 50 µM | KM12 > 50 µM | LOX IMVI > 50 µM | M14 > 50 µM | MCF7 > 50 µM | MDA-MB-231 > 50 µM | MDA-MB-435 > 50 µM | MDA-N > 50 µM | MOLT-4 > 50 µM | NCI-H23 > 50 µM | NCI/ADR-RES > 50 µM | OVCAR-3 > 50 µM | OVCAR-4 > 50 µM | OVCAR-5 > 50 µM | PC-3 > 50 µM | RPMI-8226 > 50 µM | RXF 393 > 50 µM | SF-268 > 50 µM | SF-295 > 50 µM | SF-539 15.7 µM | SK-MEL-28 > 50 µM | SK-MEL-2 > 50 µM | SK-MEL-5 > 50 µM | SK-OV-3 > 50 µM | SN12C > 50 µM | SNB-19 > 50 µM | SNB-75 > 50 µM | SW-620 > 50 µM | T47D > 50 µM | U-251 > 50 µM | UACC-62 > 50 µM

COC(=O)[C@H](C)N(C)C(=O)[C@H](C)N1[C@@H](c2ccccc2)COC1(C)C
inactive: 786-0 > 100 µM | A498 > 100 µM | A549 > 100 µM | ACHN > 100 µM | BT-549 > 100 µM | CAKI-1 > 100 µM | CCRF-CEM > 100 µM | COLO 205 > 100 µM | EKVX > 100 µM | HCT-116 > 100 µM | HL-60 > 100 µM | HOP-62 > 100 µM | HOP-92 > 100 µM | HT-29 > 100 µM | Hs-578T > 100 µM | IGROV-1 > 100 µM | K562 > 100 µM | KM12 > 100 µM | LOX IMVI > 100 µM | M14 > 100 µM | MCF7 > 100 µM | MDA-MB-231 > 100 µM | MDA-MB-435 > 100 µM | MDA-N > 100 µM | MOLT-4 > 100 µM | Malme-3M > 100 µM | NCI-H226 > 100 µM | NCI-H23 > 100 µM | NCI-H460 > 100 µM | NCI-H522 > 100 µM | NCI/ADR-RES > 100 µM | OVCAR-3 > 100 µM | OVCAR-4 > 100 µM | OVCAR-5 > 100 µM | OVCAR-8 > 100 µM | PC-3 > 100 µM | RPMI-8226 > 100 µM | RXF 393 > 100 µM | SF-268 > 100 µM | SF-295 > 100 µM | SF-539 > 100 µM | SK-MEL-28 > 100 µM | SK-MEL-2 > 100 µM | SK-MEL-5 > 100 µM | SK-OV-3 > 100 µM | SNB-19 > 100 µM | SNB-75 92.7 µM | SR > 100 µM | SW-620 > 100 µM | T47D > 100 µM | TK-10 > 100 µM | U-251 > 100 µM | UACC-257 > 100 µM | UACC-62 > 100 µM | UO-31 > 100 µM
> 100 µM: HCT-15
